The subject of experiment [1] is HD487B cells. As to the kind of experiment: Puromycin selection of HD487B cells, insulin mRNA by quantitative RT-PCR. The class given is cell-based, human. On the procedure:
In an attempt to see if other protein synthesis inhibitors have similar effect as hygromycin B on cultured pancreatic cells puromycin was used in a pilot experiment. We treated P0 cells from HD487B with puromycin at either 2.5 or 5 μg/mL concentrations in SM95/M7 (4:1) for overnight. The cells were recovered in the same medium without puromycin till reaching confluence and passaged to P1. P1 and P2 cells were cultured in SM95/M7 (9:1) with Wnt3a (20 ng/mL). P3 and P4 cells were cultured in SM95/M7 (4:1) with bFGF (50 ng/mL). P5 cells were cultured in maturation medium. We took portions of cells at each passages and analyzed insulin gene expression by quantitative RT-PCR and normalized to β-actin expression. Cells that survived puromycin treatment also expressed insulin at passages 1, 2, 3, 4, and 5.

The subject of experiment [2] is 30S ribosomal subunit. Conditions: cited from earlier work.
Experiment [3] relates to cells. Conditions: cited from earlier work.

`COc1ccc(C[C@H](N)C(=O)N[C@H]2[C@@H](O)[C@H](n3cnc4c(N(C)C)ncnc43)O[C@@H]2CO)cc1` [puromycin]: the “Insulin expression (normalized to β-actin)” value in experiment [1] (HD487B P1, 2.5 μg/mL @ P0) is 3.96E−01; in experiment [1] (HD487B P1, 5 μg/mL @ P0), 8.48E−02; in experiment [1] (HD487B P2, 2.5 μg/mL @ P0), 1.39E−02; in experiment [1] (HD487B P2, 5 μg/mL @ P0), 2.51E−02; in experiment [1] (HD487B P3, 2.5 μg/mL @ P0), 9.89E−03; in experiment [1] (HD487B P3, 5 μg/mL @ P0) it was 2.63E−02. Further, the “Insulin expression (normalized to β-actin)” value in experiment [1] (HD487B P4, 2.5 μg/mL @ P0) worked out at 3.46E−03; in experiment [1] (HD487B P5, 2.5 μg/mL @ P0) it was 1.83E−03.
In the case of neomycin, the “reduction of the rate of 30S formation compared with control cells” value in experiment [2] (3 μg/mL) is reported as “about 80%”. The “IC50 for 30S particle formation” value in experiment [2] is “equal to the IC50 for inhibition of translation”. Also, the “IC50, viable cell number” value in experiment [3] was 2 µg/mL.
